Where a name gives a salt, the structure may show the parent alone.
How the values were obtained:
[1] = biological target: T1, human MMP-13 (Homo sapiens, UniProt P45452); assay: Inhibitory activity against MMP-13 (fluorogenic MCA substrate); format: biochemical; conditions: activated human MMP-13, 37° C. for 12 hours
T1 construct: made in house; host or cells: COS-1 cells (pcDNA I vector), culture supernatant
Text: As MMP-13, there was used one which had been prepared by genetic engineering (using a well-known human chondrocyte cDNA library as a template, cDNA fragments were amplified by PCR by the use of primers 5′-[…]-3′ (SEQ ID NO: 1) and 5′-[…]-3′ (SEQ ID NO: 2) and each of the cDNA fragments amplified was inserted in a vector pcDNA I, and the vector was introduced into COS-1 cells derived from Afurikamidorizaru kidney, followed by culture and the recovery of the supernatant of a culture medium) on the basis of the well-known genetic base sequence of human MMP-13 (J. Biol. Chem., 269 (24), 16766-16773 (1994)) and had been activated by maintaining the thus prepared MMP-13 at 37° C. for 2 hours in the presence of 1 mM mercury 4-aminophenylacetate.
Inhibitory activity against human MMP-13 was measured according to the method of C. G. Knight et al. (FEBS Lett., 296 (3), 263-266 (1992)).
That is, 45 μl of assay buffer (0.1M Tris-hydrochloric acid, 0.1M sodium chloride, 0.01M calcium chloride, 0.05% Brigy 35, pH=7.5) was placed in a 96-well micro-titer plate for fluorometry, and 5 μl of a solution of a test compound in dimethyl sulfoxide was added thereto. […] After the micro-titer plate was maintained at 37° C. for 12 hours to carry out the reaction, fluorescence was measured with the fluorescence plate reader to measure the residual enzyme activity.

[2] = tested on: rat partial-meniscectomy models; assay: Pharmacological test on rat partial-meniscectomy models; format: in vivo; conditions: 50 mg/kg, orally six times per week for 3 weeks, SD (IGS) male rats
Text: SD (IGS) male rats aged 6 weeks (purchased from Charles River Japan Inc.) were used. The hair on the knee joint portion of right hind leg of each rat was shaved with a hair clipper under etherisation, and then the skin on the joint side of the lateral collateral ligament was incised along the ligament. Subsequently, the fascia was incised and the lateral collateral ligament was resected in a length of about 3 mm. Thereafter, the medial meniscus was exposed and the matters adhering to the meniscus were removed. The meniscus was picked up with tweezers and a part of the meniscus was cut off along the tweezers with microscissors. The fascia and the skin were sutured. One week after the above treatment, the administration of each test compound was started. The volume of the test compound administered was 10 ml/kg (solvent: 0.5% methyl cellulose) and the test compound was orally administered six times per week for 3 weeks. After the body weight was measured, the shinbone of the right hind leg was collected and fixed in 10% neutral buffered formalin. […] The average of scores for rats in each group was calculated and the degree of chondrodegeneration of a pathosis control group was taken as 100%. The chondrodegeneration inhibition rate of each compound was calculated by the following equation: Inhibition rate=1−(average score value of drug-treated group/score value of control group)×100

COc1ccc(CCC[C@@H]2Sc3ccc(C(=O)O)cc3N(CC(=O)NO)C2=O)cc1 [Example 14, (−)-4-[2-(Hydroxyamino)-2-oxoethyl]-2-[3-(4-methoxyphenyl)propyl]-3-oxo-3,4-dihydro-2H-1,4-benzothiazine-6-carboxylic acid]
IC50 [1]: 44 nM

CCOC(=O)c1ccc2c(c1)N(CC(=O)NO)C(=O)[C@H](CCCc1ccc(OC)cc1)S2 (as salt: TFA) [Example 7, (−)-Ethyl 4-[2-(hydroxyamino)-2-oxoethyl]-2-[3-(4-methoxyphenyl)propyl]-3-oxo-3,4-dihydro-2H-1,4-benzothiazine-6-carboxylate]
melting point: 143.5 to 144.5 °C

CCOC(=O)c1ccc2c(c1)N(CC(=O)NO)C(=O)[C@H](CCCc1ccc(OC)cc1)S2 [Example 7, (−)-Ethyl 4-[2-(hydroxyamino)-2-oxoethyl]-2-[3-(4-methoxyphenyl)propyl]-3-oxo-3,4-dihydro-2H-1,4-benzothiazine-6-carboxylate]
chondrodegeneration inhibition rate [2]: 52%
